# pEC50, pIC50: −log10 of the molar value. Like-named read-outs stand apart in the source and are kept apart here.
# Columns and labels:
# RXR-VDR heterodimer = target: T1, RXR-VDR heterodimer (Homo sapiens, UniProt P11473); assay: RXR-VDR heterodimerization assay (SaOS-2 cells); type: cell-based
# T1 construct: Add the Gal-4-RXR-DEF and VP16-VDR-LBD; expressed in transfected cells; host or cells: SaOS-2 cells
# T1 sequence (P11473 127-423 limits assumed): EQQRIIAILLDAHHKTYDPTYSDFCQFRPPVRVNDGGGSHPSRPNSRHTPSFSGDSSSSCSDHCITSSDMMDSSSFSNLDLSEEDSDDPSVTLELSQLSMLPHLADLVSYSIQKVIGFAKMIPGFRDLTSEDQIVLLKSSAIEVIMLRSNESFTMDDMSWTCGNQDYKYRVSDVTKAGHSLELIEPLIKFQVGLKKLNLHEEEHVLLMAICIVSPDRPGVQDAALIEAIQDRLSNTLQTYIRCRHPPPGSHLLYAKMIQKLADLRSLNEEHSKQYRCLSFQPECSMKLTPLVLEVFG
# T1 sequence (P19793 201-462 partner limits assumed): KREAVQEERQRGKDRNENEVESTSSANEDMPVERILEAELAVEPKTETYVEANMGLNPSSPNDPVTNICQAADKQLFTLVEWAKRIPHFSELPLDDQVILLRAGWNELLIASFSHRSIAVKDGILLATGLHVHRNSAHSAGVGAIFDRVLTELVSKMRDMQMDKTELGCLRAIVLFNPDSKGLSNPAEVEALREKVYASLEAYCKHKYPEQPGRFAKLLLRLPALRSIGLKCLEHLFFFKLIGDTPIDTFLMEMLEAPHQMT
# From the text: 2. The RXR-VDR heterodimerization (SaOS-2 cells) test is described in the “Assay” section of the Description, infra.
# 1. The RXR-VDR heterodimerAssay:
# This assay provides the VDR activity of a test compound.
# (1) Materials and Method for RXR-VDR Heterodimerization Assay:
# Luciferase Assay Reagent: • Use Steady-Glo Luciferase Reagent from Promega (Cat # E2550) Consists of: • a. E2533 Assay Substrate, lyopholized product and • b. […] DAY 2: Transfection Step 1: DNA and Media • Add plain DMEM media to tubes for mixing the DNA • Add the Reporter gene pFR-LUC • Add the Gal-4-RXR-DEF and VP16-VDR-LBD Step 2: FuGENE and Media • Prepare plain DMEM media in a ubes for mixing FuGENE • Add FuGENE 6 Transfection Reagent • Incubate Step 3: FuGENE, DNA and Media Complex • Add FuGENE Media complex from step 2 to DNA Media complex from step 1 • Incubate Step 4: FuGENE, DNA and Media Complex to-well plate • Add FuGENE-DNA-Media complex from step 3 to each plate • Incubate. […] Day 4: Luciferase Assay • Read the plates after drug treatment • Remove part of media from all the wells and leave remainder • Add Steady-Glo Luciferase Reagent mixture/wells • Incubate • Count each well using a Luminescence counter, Top Count NXT by Packard
# Set a delay between plates to reduce the background.
# VDR = target: T2, VDR (Homo sapiens, UniProt P11473); assay: VDR CTF (Caco-2 cell co-transfection assay); type: cell-based; conditions: Caco-2 cells
# T2 construct: the receptor expression vector pGa14-VDR-LBD (10 ng); expressed in transfected cells; host or cells: Caco-2 cells
# T2 sequence (P11473 127-423 limits assumed): T1 sequence (P11473 127-423 limits assumed)
# Description: 3. The VDR CTF (Caco-2 cells) test is described in the “Assay” section of the Description, infra.
# 2. The Caco-2 Cell Co-Transfection Assay:
# The Caco-2 cell assay is an indicator for the undesirable condition of hypercalcemia. This co-transfection assay is a surrogate assay for in vivo calcemic activity of VDR ligands. […] Preferred assay results are greater than 1000 nM.
# (2) Materials and Method for The Caco-2 Cell Assay:
# Caco-2 cells, grown in phenol red free, DMEM (Invitrogen, Carlsbad, Calif.) containing 10% charcoal-stripped FCS (Hyclone, Logan, Utah), were transfected with Fugene 6 reagent (Roche Diagnostics, Indianapolis, Ind.). Cells (5000/well) were plated 18 h before transfection in a 96 well plate. The Cells were transfected with Gal-4-responsive reporter pFRLuc (150 ng, Stratagene, La Jolla Calif.) and the receptor expression vector pGa14-VDR-LBD (10 ng), along with Fugene 6 reagent (0.2 µl/well). The DNA-Fugene complex was formed by incubating the mixture for 30 min at room temperature. The cells were transfected in triplicate for 5 h, and treated with various concentrations of VDR ligands (form 0.01 nM to 10,000 nM concentration range) 18 h post-transfection. The luciferase activity was quantified using Steady-Glo reagent kit (Promega, Madison, Wis.) as per manufacturer's specifications.
# rat osteocalcin promoter = assay: OCN (osteocalcin) promoter assay in RG-15 (ROS 17/2.8) cells; type: cell-based
# Method in brief: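 Rat osteoblast-like RG-15 (ROS 17/2.8) cells stably carry the rat osteocalcin promoter fused to luciferase. They were treated with compounds for 48 h in medium with 2% FBS and 0.01% DMSO. EC50 was derived from luciferase activity in cell lysates.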
# [1] = system: IL-10 production in peripheral blood mononuclear cells (PBMCs); assay: Human IL-10 induction assay in PBMCs; type: cell-based; conditions: TPA/PHA stimulated human PBMCs, IL-10 in supernatant by immunoassay
# From the text: 7. The IL-10 induction assay is described in the “Assay” section of the Description, infra.
# The evaluation of the novel compounds of the invention for psoriasis is done using the Keratinocyte Proliferation Assay in combination with other assays that measure inhibition of IL-2 production and stimulation of IL-10 production in peripheral blood mononuclear cells (PBMCs).
# 6. The IL-1 Induction Assay
# This is an in vitro efficacy assay for psoriasis, abscess and adhesion. Psoriasis involves both keratinocytes and immune cells. IL-10 is a unique cytokine because it is anti-inflammatory and immunosuppressive. This assay tells us whether a VDRM is able to function as an agonist in PBMCs (primary blood mononuclear cells) or not. A lower EC50 value is desirable in this assay since a compound with a lower EC50 value will be a better agonist in PBMCs. An acceptable test result is an EC50 value of less than 200 nM.
# (6) Materials and Method for Human IL-10 Induction Assay:
# Isolation of peripheral blood mononuclear cells (PBMCs):
# • A. Collect 50 ml of human blood and dilute with media, RPMI-1640. • B. Prepare sterile tubes with ficol. • C. Add diluted blood to tubes. • D. Centrifuge. • E. Discard the top layer and collect the cells from middle layer. • F. Divide all cells into four tubes and add media. • G. Centrifuge. • H. Aspirate off media and resuspend. • I. Collect all cells • J. Centrifuge. at 1200 rpm for 10 minutes. • K. Resuspend in RPMI-1640 with 2% FBS and count cells • Stimulation of PBMC: • L. Prepare TPA in DMSO. • M. Dissolve PHA in water. • N. Plate TPA/PHA treated PBMCs in well plates. • O. Incubate. • Treatment: • P. Prepare all compound dilutions in plain RPMI-1640 media. • Q. Add diluted compound. • R. Incubate. • Sample Collection and assay: • S. Remove all the cells by centrifugation and assay the supernatant for IL-10 by immunoassay. • 1) T. Perform IL-10 assay using anti-human IL-10 antibody coated beads, as described by the manufacturer (Linco Research Inc., St. Charles, Mo.).
# KERtr cells = assay: Keratinocyte proliferation assay (BrdU incorporation); type: cell-based; conditions: KERtr human skin keratinocytes, 72 hr treatment, read-out: Kera. Prolif. IC50
# [2] = Mouse hypercalcemia assay (six day, serum ionized calcium); type: in vivo
# Description: 5. The Mouse Hypercalcemia test is described in the “Assay” section of the Description, infra.
# 4. The Mouse Hypercalcemia Assay
# The Mouse Hypercalcemia Assay is a six day hypercalcemia test for toxicity and selectivity. Acceptable test results are levels greater than 300 μg/kg/day. Preferred assay results are levels greater than 1000 μg/kg/day.
# (4) Materials and Method for The Mouse Hypercalcemia Assay:
# Weanling, virus-antibody-free, five to six weeks old female DBF mice (Harlan, Indianapolis, Ind.) are used for all the studies. Animals are allowed to acclimate to local vivarium conditions for 2 days. […] The animals then are divided into groups with 4-5 mice per group. Different doses of test compounds prepared in 10% Ethanol and 90% sesame oil are administered to mice orally via gavage for 6 days. 1α-25(OH)2D3 0.5 μg/kg/d was also given to one group of mice as the positive control. Serum ionized calcium is evaluated at 6 hours after the last dosing under isoflurane anesthesia by Ciba-Corning Ca++/PH Analyzer, (Model 634, Chiron Diagnostics Corp., East Walpole, Mass.). Raw data of group differences is assessed by analysis of variance (ANOVA) using Fisher's protected least significant difference (PLSD) where the significance level was P<0.05.
# [3] = Homo sapiens, Keratinocyte, 72 h
SMILES,pEC50 (RXR-VDR heterodimer),pEC50 (rat osteocalcin promoter; Rattus norvegicus),"pIC50 ([1]; Homo sapiens, PBMC)",further results
"CCC(CC)(c1ccc(OCC(O)C(C)(C)C)c(C)c1)c1cc(C)c(C(=O)OC)s1 (single isomer, unassigned) [Ex. 6B]",6.49,6.49,,pEC50 (VDR): 5.98
"CCC(CC)(c1ccc(CCC(=O)O)c(C)c1)c1cc(C)c(CCC(O)C(C)(C)C)s1 (single isomer, unassigned) [Ex. 30B]",,,6.92,
CCC(CC)(c1ccc(OCC(O)C(C)(C)C)c(C)c1)c1ccc(C(=O)OC)s1 (stereo not drawn) [Ex. 5],,6.84,,pEC50 (VDR): 5.99
CCC(CC)(c1ccc(OCC(=O)C(C)(C)C)c(C)c1)c1cc(C)c(CS(C)(=O)=O)s1 [Ex. 9],,7.33,7.01,pIC50 (KERtr cells; [3]): 6.89
"CCc1cc(C(CC)(CC)c2ccc(C(=O)O)s2)ccc1OCC(O)C(C)(C)C (single isomer, unassigned) [Ex. 101, 3′-[4-(2-hydroxy-3,3-dimethylbutoxy)-3-ethylphenyl]-3′-[5-carboxy-thiophen-2-yl]pentane]",6.42,,,pEC50 (rat osteocalcin promoter): 7.53; Mouse Hypercal [2]: 12000 µg/kg/day
"CCC(CC)(c1ccc(OCS(C)(=O)=O)c(C)c1)c1cc(C)c(CCC(O)C(C)(C)C)s1 (single isomer, unassigned) [Ex. 15B]",6.67,,,pEC50 (VDR): 6.61
"CCC(CC)(c1ccc(OCC(O)C(C)(C)C)c(C)c1)c1ccc(S(=O)(=O)NCC(=O)OC)s1 (single isomer, unassigned) [Ex. 152]",6.32,6.96,,
CCC(CC)(c1ccc(OCC(O)C(C)(C)C)c(C)c1)c1cc(C)c(S(=O)(=O)NCC(=O)OC)s1 (stereo not drawn) [Ex. 136],6.37,,,pEC50 (VDR): 6.05
CCC(CC)(c1ccc(OCC(O)C(C)(C)C)c(C)c1)c1cc(C)c(S(=O)(=O)NCC(=O)O)s1 (stereo not drawn) [Ex. 138],,,6.96,pIC50 (KERtr cells; [3]): 6.99
"CCc1cc(C(CC)(CC)c2ccc(C(=O)O)s2)ccc1OCC(C)(O)C(C)(C)C (single isomer, unassigned) [Ex. 108, 3′-[4-(2-hydroxy-2,3,3-trimethylbutoxy)-3-ethylphenyl]-3′-[5-carboxy-thiophen-2-yl]pentane]",,8.28,6.22,Mouse Hypercal [2]: 300 µg/kg/day; pIC50 (KERtr cells; [3]): 7.18
"CCC(CC)(c1ccc(OS(C)(=O)=O)c(C)c1)c1cc(C)c(CCC(O)C(C)(C)C)s1 (single isomer, unassigned) [Ex. 19A]",,,7.22,pIC50 (KERtr cells; [3]): 7.74
"CCCc1cc(C(CC)(CC)c2ccc(C(=O)O)s2)ccc1OCC(C)(O)C(C)(C)C (single isomer, unassigned) [Ex. 113, 3′-[4-(2-hydroxy-2,3,3-trimethylbutoxy)-3-n-propylphenyl]-3′-[5-carboxy-thiophen-2-yl]pentane]",6.27,,,pEC50 (rat osteocalcin promoter): 6.93
"CCC(CC)(c1ccc(OCC(C)(O)C(C)(C)C)c(OC)c1)c1ccc(C(=O)N[C@H](C)C(=O)O)s1 (single isomer, unassigned) [Ex. 117, d-3′-[4-(2-hydroxy-2,3,3-trimethylbutoxy)-3-methoxyphenyl]-3′-[5-(carboxy-1-ethylamino)carbonyl-thiophen-2-yl]pentane]",5.66,,,pEC50 (rat osteocalcin promoter): 6.99
CCC(CC)(c1ccc(OCC(O)C(C)(C)C)c(C)c1)c1cc(C)c(-c2n[nH]c(=O)o2)s1 (stereo not drawn) [Ex. 170],,,7.00,
"C=C1/C(=C\C=C2/CCC[C@]3(C)[C@@H]([C@H](C)CCCC(C)(C)O)CC[C@@H]23)C[C@@H](O)C[C@@H]1O [AA, 1α,25-dihydroxyvitamin D3, reference compound]",,,,pEC50 (rat osteocalcin promoter): 8.30; Mouse Hypercal [2]: 0.06 µg/kg/day; pIC50 [1]: 8.92
"CCc1cc(C(CC)(CC)c2ccc(C(=O)N[C@@H](C)C(=O)O)s2)ccc1OCC(C)(O)C(C)(C)C (single isomer, unassigned) [Ex. 110, d-3′-[4-(2-hydroxy-2,3,3-trimethylbutoxy)-3-ethylphenyl]-3′-[5-(carboxy-1-ethylamino)carbonyl-thiophen-2-yl]pentane]",,9.65,6.54,Mouse Hypercal [2]: <300 µg/kg/day; pIC50 (KERtr cells; [3]): 8.02
"CCC(CC)(c1ccc(OCC(O)C(C)(C)C)c(C)c1)c1cc(C)c(C(=O)N[C@@H](C)C(=O)O)s1 (stereo partly drawn) [Ex. 65, L-2-[(5-{1-Ethyl-1-[4-(2-hydroxy-3,3-dimethyl-butoxy)-3-methyl-phenyl]-propyl}-3-methyl-thiophene-2-carbonyl)-amino]-propionic acid]",,,7.39,pEC50 (rat osteocalcin promoter): 8.47; Mouse Hypercal [2]: 300 µg/kg/day; pIC50 (KERtr cells): 7.25

# Reference: patent publication US7601850B2, “Phenyl-thiophene type vitamin D receptor modulators” (Eli Lilly and Company, priority 2002, dated 2009)
